Earlier results as cited in patent US20040022740A1, “Macrolide formulations for inhalation and methods of treatment of endobronchial infections” (priority 2003, published 2004).

For `CC[C@H]1OC(=O)[C@H](C)[C@@H](O[C@H]2C[C@@](C)(OC)[C@@H](O)[C@H](C)O2)[C@H](C)[C@@H](O[C@@H]2O[C@H](C)C[C@H](N(C)C)[C@H]2O)[C@](C)(O)C[C@@H](C)[C@@H]2N[C@@H](COCCOC)O[C@H]([C@H]2C)[C@]1(C)O` [dirithromycin], the oral bioavailability (in humans) is given as 10-14% and the “elimination into the feces” value (in vivo) is given as 62-81%.
